Measured values from patent US20260355184A1, “SMALL MOLECULE DEGRADERS OF HIV-1 TAT PROTEIN” (priority 2022, published 2026).
Read-outs that look alike come from different tables or passages of the source.

How the values were obtained:
Flag-Tat and GFP = Flag-Tat and GFP (Human immunodeficiency virus type 1 (HXB3 ISOLATE), UniProt P69698); assay: J-Lat A2 cells stimulated with TNF-α, western blot of Flag-Tat and GFP; assay type: cell-based, HIV; conditions: TNF-α 20 ng/mL, 17 hours
Experimental: FIG. 5. […] Triptolide: 1 nM, TT-44856 and TT-44863: 40 μM, TT-44881: 60 μM. […] C. Impact of the lead hits on J-Lat A2 cells upon 17 hours stimulation with TNF-α (20 ng/mL). EPL: 10 μM, Triptolide (TRP): 1 nM, TT-44856 and TT-44863: 40 μM, TT-44881: 60 μM. […] Triptolide: 1 nM, TT-44856 and TT-44863: 40 μM, TT-44881: 60 μM.
(§1) Next, the effect of the three leads on the alteration of Tat steady state levels was assessed. Tat expression from an integrated provirus, or from HIV acute infection is generally too low to be detected by western blot. Furthermore, antibodies against Tat are known for their lack of avidity. Tat degradation was thus assessed upon transfection. Flag-Tat or Flag-GFP were individually transfected into HEK293T and 24 hrs later, TT-44856, TT-44863 or TT-44881 were added to the culture, followed by Western blot 24 hrs later (dubbed “degradation assay”) (FIG. 5A). […] Finally, the leads' impact on recombinant Tat protein in HEK293T cells was assessed (FIG. 5D). HEK293T cells were incubated with recombinant Tat for 4 hrs to allow Tat internalization, followed by several thorough washes to remove unincorporated Tat. Cells were then incubated with all three leads (or Triptolide) for an additional 2 hrs. Cells were lysed and analyzed by western blot with an anti-Tat serum.

recombinant Tat = target: T1, recombinant Tat (Human immunodeficiency virus type 1 (HXB3 ISOLATE), UniProt P69698); assay: Recombinant Tat stability in HEK293T cells, western blot; assay type: cell-based, HIV; conditions: 4 hrs recombinant Tat then 2 hrs compound, n=1
T1 construct: detected with anti-Tat serum
T1 sequence (P69698 whole entry): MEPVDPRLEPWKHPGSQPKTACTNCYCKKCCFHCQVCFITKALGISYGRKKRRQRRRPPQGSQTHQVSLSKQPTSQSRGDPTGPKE
Experimental: as §1

PL11 cells = assay: Tat independent transactivation counter-screen with TNFα, PL11 cells; assay type: cell-based; conditions: PL11 cells activated with TNFα
Source text: Tat is a 14 kDa protein that is synthesized from an mRNA joined from 2 coding exons (FIG. 1B). The first exon encodes amino acids 1-72 and (in most strains of HIV), the second exon encodes amino acids 73-101. An N-terminal 86-amino acid form of Tat produced in a few laboratory-passaged virus strains is frequently used to study Tat. The classic cell-based Tat transactivation assay of the HIV LTR driving luciferase was optimized as a reporter gene for HTS9 (FIG. 2A). The assay concept is exceptionally robust, includes all the cellular components needed for transcriptional activation, and is very well-suited for an HTS for Tat antagonists. Compared with alternative approaches, this classic assay consistently outperformed the others. […] LTR activation is triggered by transfection of a plasmid expressing HIV-1HXB3 Tat (101 a.a.) driven by the phosphoglycerate (PGK) promoter. The assay called “Tat-TAR assay” was validated, and found robust and very well suited for an HTS platform, with a signal to background ratio of 407:1, a signal to noise ratio of 10:1, and a Z′=0.67. The cytotoxicity screen was performed in parallel (Cell-Titer-Glo, Promega), showing a signal to background ratio 898:1, signal to noise ratio 21:1 and a Z′=0.86. […] These hits were counter-screened in a Tat independent transactivation assay using TNFα to activate PL11 cells, resulting in the selection of 30 hits.

HIV NL4.3 strain = assay: HIV infectivity assay, reporter cell line HeLa-CD4-LTR-LacZ, β-Gal activity (Tat protein inhibition); assay type: cell-based, HIV-1 (NL4.3)
Method in brief: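 HeLa-CD4-LTR-LacZ reporter cells (β-Gal under HIV 5′ LTR) infected with HIV NL4.3; β-Gal activity read 72 h post infection, with parallel Cell-Titer-Glo viability. OM10.1 carry a single wild-type provirus; ACH-2 a single provirus with TAR C37T mutation, defective Tat-TAR feedback.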

Tat F38A = Tat F38A (Human immunodeficiency virus type 1 (HXB3 ISOLATE), UniProt P69698, F38A); conditions: TT-44856 and TT-44863 40 μM, TT-44881 60 μM
Chain of Tat F38A (P69698 whole entry F38A): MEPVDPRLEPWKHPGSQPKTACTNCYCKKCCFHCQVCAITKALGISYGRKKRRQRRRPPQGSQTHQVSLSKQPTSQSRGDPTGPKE
Source text: The molecular docking of HIV Tat protein bound to dCA was previously reported, informed by a series of more than 60 analogs of dCA, using AutoDock Vina with the NMR HIV Tat Mal protein (D clade) as a template (Protein data Bank, PDB entry 1K5K)21. […] Single changes to residues Y26 and F38 decrease Tat transactivation activity^33-36. […] To validate the molecular docking model, Tat variants with either deletions or mutated residues were used in degradation assays in the presence of leads.

Tat or GFP mRNA = Tat or GFP mRNA expression in HEK293T cells; assay type: cell-based; conditions: n=3
Tat lysine mutants = conditions: TT-44881 60 μM; for Tat degradation, K28R, K29R and K41R: TT-44856 and TT-44863 40 μM; for Tat degradation, K28R, K29R and K41R / Tat degradation, single or combined lysine mutations: n=1; for Tat degradation, single or combined lysine mutations / Tat degradation, additional lysine mutations to K28R, K29R and K41R: TT-44856 40 μM; for Tat degradation, additional lysine mutations to K28R, K29R and K41R: n=2
Source text: Tat 86 a.a. has 9 lysine residues (FIG. 8D) that could be engaged by lysine 48-linked ubiquitin chains or nonconventional ubiquitin chains, i.e., non-Lys-48 or non-Lys-63, to be degraded through the 26S proteasomal pathway^3738. […] Tat lysine residues required for leads' degradation engagement can be determined.
In addition to K28-29-K41R, other Tat's lysine residues were mutated and degradation assays performed in the presence of TT-44881 or TT-44856.

HIV Tat = assay: Tat-TAR assay (HIV LTR luciferase transactivation, PL11 cells); assay type: cell-based; conditions: for activity against Tat 86 a.a. from different HIV clades: HIV clade B, C and E, n=1; for IC50 against Tat 86 and 101 residues (comparison): Tat 86 a.a. vs 101 a.a.
Source text: Tat is a 14 kDa protein that is synthesized from an mRNA joined from 2 coding exons (FIG. 1B). The first exon encodes amino acids 1-72 and (in most strains of HIV), the second exon encodes amino acids 73-101. An N-terminal 86-amino acid form of Tat produced in a few laboratory-passaged virus strains is frequently used to study Tat. The classic cell-based Tat transactivation assay of the HIV LTR driving luciferase was optimized as a reporter gene for HTS9 (FIG. 2A). […] LTR activation is triggered by transfection of a plasmid expressing HIV-1HXB3 Tat (101 a.a.) driven by the phosphoglycerate (PGK) promoter.

[1] = Human immunodeficiency virus 1, 72 h, read-out: IC50 against HIV infection, HeLa-CD4-LTR-LacZ, HIV NL4.3, β-Gal 72 hrs post infection

Chain of Flag-Tat and GFP (P69698 whole entry): as the sequence (P69698 whole entry) above

Compound | Flag-Tat and GFP levels in J-Lat A2 cells (Flag-Tat and GFP) | recombinant Tat degradation (recombinant Tat) | Tat specificity in TNFα counter-screen (PL11 cells) | IC50 (HIV NL4.3 strain; [1]) | IC50 (HIV NL4.3 strain; Human immunodeficiency virus 1, read-out: Infectivity IC50, HeLa-CD4-LTR-LacZ, analogs of TT-44863 (Table 2)) | Tat degradation, F38A mutation (Tat F38A) | effect on Tat or GFP mRNA expression (Tat or GFP mRNA) | Tat degradation, K28R, K29R and K41R (Tat lysine mutants) | activity against Tat 86 a.a. from different HIV clades (HIV Tat) | IC50 against Tat 86 and 101 residues (comparison) (HIV Tat) | IC50 (HIV NL4.3 strain; Human immunodeficiency virus 1, read-out: Infectivity IC50, HeLa-CD4-LTR-LacZ, analogs of TT-44856 (Table 3)) | Tat degradation, single or combined lysine mutations (Tat lysine mutants) | Tat degradation, additional lysine mutations to K28R, K29R and K41R (Tat lysine mutants) | IC50 (HIV NL4.3 strain; Human immunodeficiency virus 1, read-out: Infectivity IC50, HeLa-CD4-LTR-LacZ, analogs of TT-44881 (Table 1))
COCCOc1ccc(C(F)(F)F)cc1NC(=O)Cn1cc(C(F)(F)F)cc(Cl)c1=O [TT-44863] | strongly reduced | degraded Tat as opposed to the DMSO control | Tat specific | 6 ± 1.3 µM | 1 to 10 µM | only weakly reduced lead hits mediated degradation | without affecting Flag-Tat mRNA levels | do not prevent lead hits induced Tat degradation | activity was confirmed | Equivalent IC50 | – | – | – | –
CC(C(=O)NCCCn1ccnc1)(c1ccccc1)c1ccccc1 [TT-44856] | strongly reduced | degraded Tat as opposed to the DMSO control | Tat specific | 20.5 ± 9.5 µM | – | only weakly reduced lead hits mediated degradation | without affecting Flag-Tat mRNA levels | do not prevent lead hits induced Tat degradation | activity was confirmed | Equivalent IC50 | 1 to 20 µM | all the mutants were similarly degraded to the control | required either K50/51, K71 or K85 | –
O=C(CCCCN1CCCC1=O)c1nn(-c2ccccc2)c2c1CCC2 [TT-44881] | strongly reduced | degraded Tat as opposed to the DMSO control | Tat specific | 19.7 ± 4.5 µM | – | only weakly reduced lead hits mediated degradation | without affecting Flag-Tat mRNA levels | do not prevent lead hits induced Tat degradation | activity was confirmed | Equivalent IC50 | – | all the mutants were similarly degraded to the control | mutation of the K19 or K71 to arginine reduced TT-44881 induced Tat degradation | 1 to 20 µM
